Reference: BindingDB's records for doi:10.1021/acs.jmedchem.0c00435 (University of Bonn, 2020)

Experiments:
[1] = Antagonist activity P2X1 receptor in human platelets assessed as inhibition of ADP-induced platelet aggregation pre-incubated for 30 mins before ADP stimulation by aggregometry
[2] = Antagonist activity P2X1 receptor in Apyrase pre-treated human platelets assessed as inhibition of collagen-induced platelet aggregation pre-incubated for 30 mins before collagen stimulation by aggregometry
[3] = Antagonist activity P2X1 receptor in Apyrase pre-treated human platelets assessed as inhibition of TRAP6-induced platelet aggregation pre-incubated for 30 mins before TRAP6 stimulation by aggregometry

O=C(Nc1cc(Cl)cc(Cl)c1)c1cc(Cl)ccc1O
IC50 [1]: > 20 µM | IC50 [2]: 3.03 µM | IC50 [3]: > 10 µM

O=C(Nc1cc(C(F)(F)F)cc(C(F)(F)F)c1)c1ccc(Cl)cc1O
IC50 [1]: 5.47 µM | IC50 [2]: 1.14 µM | IC50 [3]: 4.8 µM

O=C(Nc1cc(F)cc(F)c1)c1cc(Cl)ccc1O
IC50 [1]: > 20 µM | IC50 [3]: > 10 µM

O=S(=O)(Nc1cc(C(F)(F)F)cc(C(F)(F)F)c1)c1cc(Cl)ccc1O
IC50 [1]: > 20 µM | IC50 [2]: 3.13 µM | IC50 [3]: > 10 µM

O=C(Nc1cc(C(F)(F)F)cc(C(F)(F)F)c1)c1ccccc1 [N-(3,5-Bis(Trifluoromethyl)Phenyl)Benzamide]
IC50 [2]: 2.1 µM | IC50 [3]: 5.57 µM

O=C(Nc1cc(C(F)(F)F)cc(C(F)(F)F)c1)c1cc(Cl)ccc1O [TCMDC-125465]
IC50 [1]: 4.73 µM | IC50 [2]: 0.57 µM | IC50 [3]: 3.64 µM
